Results from patent publication US20240207263A1, “SELECTIVE MODULATORS OF ATAXIA TELA[…] (ATM) KINASE AND USES THEREOF” (priority 2021, published 2024).
Where two headings read alike, the source gives them in different places.

What was measured:
ATM = ATM (Homo sapiens (Human), UniProt Q13315); experiment: biochemical; assay type: biochemical; conditions: read-out: ATM IC50
From the text: Assay a): ATM Biochemical Potency
Data was collected by Caliper.

FaDu xenograft = FaDu xenograft model, radiation combination (Assay i); assay type: in vivo, mouse; conditions: for Inhibition (% TGI) Combo: combo with IR; for tumor response in FaDu xenograft efficacy study: oral compound in combination with IR (2 Gy per day, 5 days per cycle)
Protocol: Assay i): FaDu Xenograft Model
Cell culture: FaDu tumor cells were cultured in an EMEM medium containing inactivated 10% fetal bovine serum, 100 U/ml penicillin and 100 μg/ml streptomycin in a 37° C., 5% CO2 incubator.
Inoculation and grouping: Xenografts were established by implantation of 100 μl of Fadu tumor cell suspension (5×10^6 cells/mouse) subcutaneously into the right flank of female immune-compromised BALB/c nude mice at least 6 weeks of age. Tumours were measured in two dimensions with calipers and the tumour volume was calculated using the following formula: tumor volume=(length×width^2)×0.5. When the average tumor volume reached 100 to 150 mm^3, tumour-bearing mice were randomized into treatment groups.
Treatment and tumor assessment: Animals received 3 to 6 cycles of treatment with compounds combined with radiation therapy. Each cycle included 5 consecutive treatment day plus 2 days' rest. Ionizing radiation was administered using a fractionated schedule of 2 Gy per day administered over 5 consecutive days (total radiation dose=10 Gy/cycle). Compound was given orally 10 minutes before irradiation. The tumour volume and body weight of the mice were measured twice weekly.
Statistical Analysis: The One-Way ANOVA test was used for statistical analysis of tumor volume between groups, and p<0.05 was considered as a significant difference.

[1] = test system: phosp-KAP1 in MCF-7 cells; experiment: phosp-KAP1 MCF-7 cellular potency assay (Assay f); assay type: cell-based; conditions: Homo sapiens
Protocol: Assay f): phosp-KAP1 MCF-7 Cellular Potency
MCF-7 cells were seeded to a 384-well cell-culture plate, 25 μl/well which were incubated at 37° C. and 5% CO2 for 24 hr. Test compounds were added to the 384-well plates. Etoposide at final concentration of 100 μM was then added to each well except Vehicle control wells, which were incubated at 37° C. and 5% CO2 for 1 hour. After medium removal, cells were fixed by the addition of 25 μl/well of 8% paraformaldehyde in PBSA and incubated for 20 minutes at room temperature. After the plates were rinsed 3 times with PBSA, 50 ul permeabilization buffer (0.1% Triton X-100 in PBS) was added and the plates were incubated for 20 minutes at room temperature. After the plates were rinsed with PBSA, block the cells by adding 50 μl of Odyssey Blocking Buffer in 384-well plate and then incubate for 1.5 hours at room temperature. Remove blocking buffer by Plate washer (BioTek ELx405 select CW). […] The plates were rinsed 5 times with PBST (0.1% Tween-20 in PBS).
• 1) Fluorescence intensity (FI) was detected for each well. • 2) % inhibition is calculated as follow:
[formula] • FIpositive: The average FI for the positive controls across the plate. • FIvehicle: The average FI for negative controls across the plate. • 3) Calculate IC50 and Plot effect-dose curve of compounds: • Calculate IC50 by fitting % inhibition values and log of compound concentrations to nonlinear regression (dose response−variable slope) with Graphpad prism 6.0.
Y=Bottom+(Top−Bottom)/(1+10^((Log IC50−X)*HillSlope)) • X: log of compounds concentration; Y: % inhibition

[2] = biological target: ATM (phospho-ATM Ser1981) in SN38 treated HT-29 cells (Homo sapiens (Human), UniProt Q13315); experiment: cell-based
Protocol: Assay g): ATM SN-38 HT-29 Cellular Potency
SN38 causes single strand DNA breaks (SSBs) which are converted to double strand breaks (DSBs) during replication. ATM plays role of repairing DSBs. Inhibition of ATM was evaluated in SN38 treated HT-29 cells (ATCC, Cat #HTB-38) by high-Content Imaging System
The graphical views were then generated using Prism 7.0 (Graphpad).

mTOR = mTOR (Homo sapiens (Human), UniProt P42345); experiment: mTOR biochemical potency assay (Assay d)
Protocol: Assay d): mTOR Biochemical Potency
Solution of mTOR enzymes (Millipore, Cat. No. 14-770) was prepared in 1× kinase buffer at 4-fold of the final concentration (final concentration: 6 nM) in the assay. 2.5 μl of kinase solution was added to each well of the 384-well assay plate, which contains 2.5 μl of compounds with serially diluted concentration. 2× substrate solution was prepared with ULight-4E-BP1 (Thr37/46) Peptide (PE, Cat. No. TRF0128-M) and ATP in 1× kinase reaction buffer at 2-fold of the final concentration of each reagent in the assay. 5 μl of substrate solution was added to each well of the assay plate to start reaction. The assay plate was incubated at room temperature for 30 minutes. Detection solution of kinase quench buffer (EDTA) and Eu-anti-phospho-4E-BP1 antibody (Thr37/46) (PE, Cat. No. TRF0216-M) were prepared at 2-fold the desired final concentrations of each reagent in Lance detection buffer. 10 μl of detection solution buffer was added to each well of the assay plate.

PIK3Cδ = PIK3Cδ (Homo sapiens (Human), UniProt O00329); experiment: PI3K biochemical potency assay (Assay c), PIK3Cδ
Protocol: Assay c): PI3K Biochemical Potency
(§1) 2.5 μl of kinase solution was added to each well of the 384-well assay plate, which contains 2.5 μl of compounds with serially diluted concentration. 2× substrate solution was prepared with PIP2 substrate and ATP in 1× kinase reaction buffer at 2-fold of the final concentration of each reagent in the assay. 5 μl of substrate solution was added to each well of the assay plate to start reaction. The assay plate was incubated at room temperature for 1 hour. 5 μl reaction mix was transferred to a new 384 well plate. 5 μl of ADP-Glo reagent (Promega, Cat. No. v9102/3) was added to each well of the new assay plate to stop the reaction. The plate was shaken slowly and equilibrated for 40 minutes. 10 μl kinase detection reagents were added to each well, which was equilibrated for 60 minutes before read on a plate reader (Envision) for luminescence.

PIK3Cγ (pp110γ) = PIK3Cγ (pp110γ) (Homo sapiens (Human), UniProt P48736); experiment: PI3K biochemical potency assay (Assay c), PIK3Cγ
Protocol: Assay c): PI3K Biochemical Potency
as §1

ATR = ATR (Homo sapiens (Human), UniProt Q13535); experiment: ATR biochemical potency assay (Assay b)
Protocol: Assay b): ATR Biochemical Potency
The plate was incubated at room temperature for 10 minutes. 2× peptide solutions were prepared with FAM-labeled peptide and ATP in the 1× kinase base buffer. […] 40 μl of stop buffer was added to stop reaction. Data were collected by Caliper.

PI3Kα (p110α/p85a) = PI3Kα (p110α/p85a) (Homo sapiens (Human), UniProt P42336); experiment: PI3K biochemical potency assay (Assay c), PI3Kα
Protocol: Assay c): PI3K Biochemical Potency
as §1

PIK3Cβ (p110β) = PIK3Cβ (p110β) (Homo sapiens (Human), UniProt P42338); experiment: PI3K biochemical potency assay (Assay c), PIK3Cβ
Protocol: Assay c): PI3K Biochemical Potency
as §1

[3] = total IR 30 Gy (3 cycles), 50 mg/kg PO. TID
[4] = total IR 30 Gy (3 cycles), 150 mg/kg PO. TID
[5] = MCF7, read-out: Etoposide MCF-7 cellular IC50
[6] = MCF7, MCF-7 cells, etoposide, read-out: Etoposide MCF-7 cellular IC50
[7] = HT-29 cells, SN-38, read-out: SN-38 HT-29 cellular IC50

ATR, sequence (Q13535 whole entry, looked up): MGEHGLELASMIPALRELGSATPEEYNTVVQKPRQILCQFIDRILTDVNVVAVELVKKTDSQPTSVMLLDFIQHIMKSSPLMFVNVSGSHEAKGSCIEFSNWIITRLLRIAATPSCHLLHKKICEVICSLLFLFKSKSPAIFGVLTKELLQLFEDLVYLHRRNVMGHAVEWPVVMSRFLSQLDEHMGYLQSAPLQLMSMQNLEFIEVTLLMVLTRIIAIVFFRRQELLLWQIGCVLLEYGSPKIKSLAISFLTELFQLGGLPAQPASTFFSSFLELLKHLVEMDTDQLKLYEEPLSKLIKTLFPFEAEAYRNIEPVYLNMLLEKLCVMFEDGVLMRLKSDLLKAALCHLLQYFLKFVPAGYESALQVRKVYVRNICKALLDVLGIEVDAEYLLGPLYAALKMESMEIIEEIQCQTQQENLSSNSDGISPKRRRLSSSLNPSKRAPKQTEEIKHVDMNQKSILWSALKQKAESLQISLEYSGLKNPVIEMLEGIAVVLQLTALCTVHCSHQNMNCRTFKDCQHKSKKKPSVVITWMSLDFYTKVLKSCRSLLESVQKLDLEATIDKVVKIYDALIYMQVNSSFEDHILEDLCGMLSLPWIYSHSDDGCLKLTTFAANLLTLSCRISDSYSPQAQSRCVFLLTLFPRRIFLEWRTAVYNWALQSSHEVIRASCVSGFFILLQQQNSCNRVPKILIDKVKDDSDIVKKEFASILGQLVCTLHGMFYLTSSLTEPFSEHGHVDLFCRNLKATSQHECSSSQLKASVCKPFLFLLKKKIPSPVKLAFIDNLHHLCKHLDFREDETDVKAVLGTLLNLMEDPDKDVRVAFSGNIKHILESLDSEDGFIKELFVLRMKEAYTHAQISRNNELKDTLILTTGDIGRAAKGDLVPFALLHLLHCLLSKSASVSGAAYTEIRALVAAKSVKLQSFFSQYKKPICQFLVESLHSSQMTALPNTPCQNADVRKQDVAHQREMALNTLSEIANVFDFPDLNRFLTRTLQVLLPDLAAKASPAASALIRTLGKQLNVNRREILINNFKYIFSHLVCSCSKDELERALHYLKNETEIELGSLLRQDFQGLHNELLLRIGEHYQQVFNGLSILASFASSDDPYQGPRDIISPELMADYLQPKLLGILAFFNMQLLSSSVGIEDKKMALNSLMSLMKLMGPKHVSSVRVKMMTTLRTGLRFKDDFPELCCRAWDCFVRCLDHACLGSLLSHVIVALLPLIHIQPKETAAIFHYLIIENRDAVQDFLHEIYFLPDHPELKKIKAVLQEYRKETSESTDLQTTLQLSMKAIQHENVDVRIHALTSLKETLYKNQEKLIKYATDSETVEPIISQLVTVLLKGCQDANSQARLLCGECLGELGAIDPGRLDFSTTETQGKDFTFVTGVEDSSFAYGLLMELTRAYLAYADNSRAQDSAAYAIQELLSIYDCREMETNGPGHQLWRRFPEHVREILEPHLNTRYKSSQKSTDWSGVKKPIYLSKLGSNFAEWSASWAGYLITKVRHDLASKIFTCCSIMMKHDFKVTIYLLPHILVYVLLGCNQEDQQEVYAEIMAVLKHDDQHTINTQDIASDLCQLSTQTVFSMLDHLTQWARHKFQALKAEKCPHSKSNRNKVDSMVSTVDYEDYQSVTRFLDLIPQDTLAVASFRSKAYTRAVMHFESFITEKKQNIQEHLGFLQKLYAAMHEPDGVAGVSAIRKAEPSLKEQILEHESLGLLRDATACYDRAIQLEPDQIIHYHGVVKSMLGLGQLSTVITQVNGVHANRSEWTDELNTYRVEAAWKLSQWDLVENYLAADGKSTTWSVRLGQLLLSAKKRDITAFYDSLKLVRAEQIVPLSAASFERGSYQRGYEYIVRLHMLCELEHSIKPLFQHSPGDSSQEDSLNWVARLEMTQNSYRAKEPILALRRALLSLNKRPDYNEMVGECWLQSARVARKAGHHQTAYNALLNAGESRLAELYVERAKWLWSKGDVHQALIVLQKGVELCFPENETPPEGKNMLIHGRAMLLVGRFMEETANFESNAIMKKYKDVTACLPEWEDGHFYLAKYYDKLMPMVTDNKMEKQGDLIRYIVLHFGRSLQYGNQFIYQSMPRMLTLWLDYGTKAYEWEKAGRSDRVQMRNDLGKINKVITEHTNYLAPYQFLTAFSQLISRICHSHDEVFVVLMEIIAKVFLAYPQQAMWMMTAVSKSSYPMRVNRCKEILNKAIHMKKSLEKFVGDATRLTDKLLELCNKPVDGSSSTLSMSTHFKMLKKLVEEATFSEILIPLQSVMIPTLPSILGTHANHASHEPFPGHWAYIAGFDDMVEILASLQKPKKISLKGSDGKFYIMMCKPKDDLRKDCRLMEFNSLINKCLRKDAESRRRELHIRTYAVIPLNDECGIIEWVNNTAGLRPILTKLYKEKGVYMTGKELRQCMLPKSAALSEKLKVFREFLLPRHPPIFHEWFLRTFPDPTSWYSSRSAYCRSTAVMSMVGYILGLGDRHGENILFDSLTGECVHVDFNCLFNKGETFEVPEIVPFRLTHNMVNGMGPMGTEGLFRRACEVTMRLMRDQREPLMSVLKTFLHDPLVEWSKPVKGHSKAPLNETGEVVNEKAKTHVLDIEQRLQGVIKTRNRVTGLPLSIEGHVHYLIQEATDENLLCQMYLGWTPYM
ATR, sequence (Q8WXE1 whole entry partner, looked up): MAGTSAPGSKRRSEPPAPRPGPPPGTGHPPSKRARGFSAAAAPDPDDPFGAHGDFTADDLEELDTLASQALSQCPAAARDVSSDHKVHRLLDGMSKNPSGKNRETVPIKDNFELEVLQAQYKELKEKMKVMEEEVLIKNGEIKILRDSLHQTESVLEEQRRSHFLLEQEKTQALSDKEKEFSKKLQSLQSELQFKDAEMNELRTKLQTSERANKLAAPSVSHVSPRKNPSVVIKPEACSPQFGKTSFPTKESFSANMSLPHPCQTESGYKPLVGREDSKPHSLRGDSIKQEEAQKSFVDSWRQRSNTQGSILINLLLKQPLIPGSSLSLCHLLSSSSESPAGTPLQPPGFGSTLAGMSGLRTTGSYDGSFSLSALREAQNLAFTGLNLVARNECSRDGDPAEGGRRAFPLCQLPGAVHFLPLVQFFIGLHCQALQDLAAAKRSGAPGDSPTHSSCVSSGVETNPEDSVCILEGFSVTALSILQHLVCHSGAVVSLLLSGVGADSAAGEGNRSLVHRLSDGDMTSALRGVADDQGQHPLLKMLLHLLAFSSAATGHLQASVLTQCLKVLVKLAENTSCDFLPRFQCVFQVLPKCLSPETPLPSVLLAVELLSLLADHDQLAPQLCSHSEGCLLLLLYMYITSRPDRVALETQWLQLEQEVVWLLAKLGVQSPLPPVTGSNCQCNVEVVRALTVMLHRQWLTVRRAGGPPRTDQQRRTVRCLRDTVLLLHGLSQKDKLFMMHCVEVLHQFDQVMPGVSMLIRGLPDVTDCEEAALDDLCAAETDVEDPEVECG
PIK3Cγ (pp110γ), sequence (P48736 whole entry): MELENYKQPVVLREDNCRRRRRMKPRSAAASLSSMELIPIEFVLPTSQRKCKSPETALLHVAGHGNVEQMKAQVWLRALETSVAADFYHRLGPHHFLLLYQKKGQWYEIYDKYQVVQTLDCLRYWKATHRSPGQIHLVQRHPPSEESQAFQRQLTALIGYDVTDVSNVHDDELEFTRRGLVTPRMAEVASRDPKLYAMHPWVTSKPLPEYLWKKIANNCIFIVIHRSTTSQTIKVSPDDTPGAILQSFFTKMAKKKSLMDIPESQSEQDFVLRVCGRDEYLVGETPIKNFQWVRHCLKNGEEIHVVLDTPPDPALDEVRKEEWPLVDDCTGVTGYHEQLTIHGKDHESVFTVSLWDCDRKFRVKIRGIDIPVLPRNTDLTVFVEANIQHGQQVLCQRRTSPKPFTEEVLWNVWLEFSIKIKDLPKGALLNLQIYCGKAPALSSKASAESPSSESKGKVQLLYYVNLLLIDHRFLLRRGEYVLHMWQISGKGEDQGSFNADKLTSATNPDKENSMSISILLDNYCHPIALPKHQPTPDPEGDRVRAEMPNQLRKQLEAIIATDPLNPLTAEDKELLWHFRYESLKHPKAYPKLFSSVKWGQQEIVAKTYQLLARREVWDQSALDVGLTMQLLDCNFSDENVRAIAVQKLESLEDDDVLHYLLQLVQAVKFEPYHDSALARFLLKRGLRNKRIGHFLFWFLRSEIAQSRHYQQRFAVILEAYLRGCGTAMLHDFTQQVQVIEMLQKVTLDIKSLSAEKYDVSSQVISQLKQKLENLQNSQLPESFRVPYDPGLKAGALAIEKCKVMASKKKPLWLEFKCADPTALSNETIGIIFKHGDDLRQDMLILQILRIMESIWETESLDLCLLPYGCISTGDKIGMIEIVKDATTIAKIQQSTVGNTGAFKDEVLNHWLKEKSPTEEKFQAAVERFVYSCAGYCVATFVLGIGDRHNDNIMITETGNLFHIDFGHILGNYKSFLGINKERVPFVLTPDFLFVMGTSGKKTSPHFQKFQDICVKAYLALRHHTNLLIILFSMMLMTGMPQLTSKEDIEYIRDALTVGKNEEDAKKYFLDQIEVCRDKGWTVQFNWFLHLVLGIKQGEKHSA

CC(C)n1c(=O)n(C)c2nnc3ccc(-c4ccc(COCCN5CC6CC6C5)nc4)cc3c21 (centres unmarked) [Example 1, 8-(6-((2-(3-azabicyclo[3.1.0]hexan-3-yl)ethoxy)methyl)pyridin-3-yl)-1-isopropyl-3-methyl-1H-imidazo[4,5-c]cinnolin-2(3H)-one]
IC50 (ATM): 16 nM
Inhibition (% TGI) Combo (FaDu xenograft; [3]): 76.8 ± 2.72 % TGI
Inhibition (% TGI) Combo (FaDu xenograft; [4]): 92.0 ± 1.31 % TGI
IC50 [1, 5]: 40 nM

CC(C)n1c(=O)n(C)c2nnc3ccc(-c4ccc(COCCN5CCC(F)CC5)nc4)cc3c21 [Example 5, 8-(6-((2-(4-fluropiperidin-1-yl)ethoxy)methyl)pyridin-3-yl)-1-isopropyl-3-methyl-1H-imidazo[4,5-c]cinnolin-2(3H)-one]
IC50 (ATM): 14 nM
Inhibition (% TGI) Combo (FaDu xenograft; [3]): 79.6 ± 2.78 % TGI
Inhibition (% TGI) Combo (FaDu xenograft; [4]): 91.9 ± 1.16 % TGI
IC50 [1, 6]: 27 nM
IC50 [2, 7]: 130 nM

CC(C)n1c(=O)n(C)c2nnc3ccc(-c4ccc(COCCN5CCC(C)(C)C5)nc4)cc3c21 [Example 36, 8-(6-((2-(3,3-dimethylpyrrolidin-1-yl)ethoxy)methyl)pyridin-3-yl)-1-isopropyl-3-methyl-1H-imidazo[4,5-c]cinnolin-2(3H)-one]
IC50 (ATM): 4.7 nM
IC50 [1, 5]: 20 nM
IC50 [2, 7]: 20 nM

CC(C)n1c(=O)n(C)c2nnc3ccc(-c4ccc([C@@H](C)OCCN5CCC6(CC6)C5)nc4)cc3c21 [Example 53, (R)-8-(6-(1-(2-(5-azaspiro[2.4]heptan-5-yl)ethoxy)ethyl)pyridin-3-yl)-1-isopropyl-3-methyl-1H-imidazo[4,5-c]cinnolin-2(3H)-one]
IC50 (ATM): 4.2 nM
IC50 (mTOR): > 10000 nM
IC50 (PIK3Cδ): > 10000 nM
IC50 (PIK3Cγ (pp110γ)): > 10000 nM
IC50 [1, 6]: 9 nM
IC50 [2, 7]: 11 nM
IC50 (ATR): > 10000 nM
IC50 (PI3Kα (p110α/p85a)): > 10000 nM
IC50 (PIK3Cβ (p110β)): > 10000 nM

CO[C@@H]1CCN(CCO[C@H](C)c2ccc(-c3ccc4nnc5c(c4c3)n(C(C)C)c(=O)n5C)cn2)C1 [Example 57, 1-isopropyl-8-(6-((R)-1-(2-((R)-3-methoxypyrrolidin-1-yl)ethoxy)ethyl)pyridin-3-yl)-3-methyl-1H-imidazo[4,5-c]cinnolin-2(3H)-one]
IC50 (ATM): 4.2 nM
IC50 [1, 6]: 20 nM
IC50 [2, 7]: 19 nM

CC(C)n1c(=O)n(C)c2nnc3ccc(-c4ccc([C@@H](C)OCCN5CCCC5)nc4)cc3c21 [Example 62, (R)-1-isopropyl-3-methyl-8-(6-(1-(2-(pyrrolidin-1-yl)ethoxy)ethyl)pyridin-3-yl)-1,3-dihydro-2H-imidazo[4,5-c]cinnolin-2-one]
IC50 (ATM): 7.8 nM
IC50 (mTOR; read-out: mTor IC50): > 10000 nM
tumor response in FaDu xenograft efficacy study (FaDu xenograft): tumor xenograft regression was observed and tumors did not relapse until the end of the study
Inhibition (% TGI) Combo (FaDu xenograft; total IR 30 Gy (3 cycles), 45 mg/kg PO. BID): 98.7 ± 0.51 % TGI
Inhibition (% TGI) Combo (FaDu xenograft; total IR 60 Gy (6 cycles), 10 mg/kg PO. BID): 80.4 ± 2.20 % TGI
Inhibition (% TGI) Combo (FaDu xenograft; total IR 60 Gy (6 cycles), 30 mg/kg PO. BID): 93.6 ± 1.33 % TGI
IC50 [2]: 21 nM
IC50 (ATR): > 10000 nM

CC(C)n1c(=O)n(C)c2nnc3ccc(-c4ccc([C@@H](C)OCCN5CCC(F)CC5)nc4)cc3c21 [Example 69, (R)-8-(6-(1-(2-(4-fluoropiperidin-1-yl)ethoxy)ethyl)pyridin-3-yl)-1-isopropyl-3-methyl-1H-imidazo[4,5-c]cinnolin-2(3H)-one]
IC50 (ATM): 5.2 nM
IC50 [1, 6]: 34 nM
IC50 [2, 7]: 47 nM

CC(C)n1c(=O)n(C)c2nnc3ccc(-c4ccc([C@@H](C)OCCN5CCC(C)(C)CC5)nc4)cc3c21 [Example 73, (R)-8-(6-(1-(2-(4,4-dimethylpiperidin-1-yl)ethoxy)ethyl)pyridin-3-yl)-1-isopropyl-3-methyl-1H-imidazo[4,5-c]cinnolin-2(3H)-one]
IC50 (ATM): 3.5 nM
IC50 [1, 5]: 9.1 nM
IC50 [2, 7]: 9.1 nM

C[C@@H](OCCN1CCC2(CC2)C1)c1ccc(-c2ccc3nnc4c(c3c2)n(C2CCOCC2)c(=O)n4C)cn1 [Example 102, (R)-8-(6-(1-(2-(5-azaspiro[2.4]heptan-5-yl)ethoxy)ethyl)pyridin-3-yl)-3-methyl-1-(tetrahydro-2H-pyran-4-yl)-1H-imidazo[4,5-c]cinnolin-2(3H)-one]
IC50 (mTOR): > 10000 nM
IC50 (PIK3Cδ): > 10000 nM
tumor response in FaDu xenograft efficacy study (FaDu xenograft): tumor xenograft regression was observed and tumors did not relapse until the end of the study
IC50 (PIK3Cγ (pp110γ)): > 10000 nM
IC50 (ATR): > 10000 nM
IC50 (PI3Kα (p110α/p85a)): > 10000 nM
IC50 (PIK3Cβ (p110β)): > 10000 nM

C[C@@H](OCCN1CCC2(CC1)CC2)c1ccc(-c2ccc3nnc4c(c3c2)n(C2CCOCC2)c(=O)n4C)cn1 [Example 107, (R)-8-(6-(1-(2-(6-azaspiro[2.5]octan-6-yl)ethoxy)ethyl)pyridin-3-yl)-3-methyl-1-(tetrahydro-2H-pyran-4-yl)-1H-imidazo[4,5-c]cinnolin-2(3H)-one]
IC50 (mTOR; read-out: mTor IC50): > 10000 nM
IC50 [1, 5]: 12 nM
IC50 (ATR): > 10000 nM

CO[C@@H]1CCN(CCO[C@H](C)c2ccc(-c3ccc4nnc5c(c4c3)n(C3CCOCC3)c(=O)n5C)cn2)C1 [Example 112, 8-(6-((R)-1-(2-((R)-3-methoxypyrrolidin-1-yl)ethoxy)ethyl)pyridin-3-yl)-3-methyl-1-(tetrahydro-2H-pyran-4-yl)-1H-imidazo[4,5-c]cinnolin-2(3H)-one]
IC50 (ATM): 7.8 nM
IC50 (mTOR; read-out: mTor IC50): > 10000 nM
Inhibition (% TGI) Combo (FaDu xenograft; total IR 40 Gy (4 cycles), 30 mg/kg PO. BID): 77.3 ± 1.67 % TGI
Inhibition (% TGI) Combo (FaDu xenograft; total IR 40 Gy (4 cycles), 60 mg/kg PO. BID): 79.6 ± 4.20 % TGI
Inhibition (% TGI) Combo (FaDu xenograft; total IR 40 Gy (4 cycles), 100 mg/kg PO. BID): 82.9 ± 1.77 % TGI
IC50 [1, 6]: 20 nM
IC50 [2]: 18 nM
IC50 (ATR): > 10000 nM

CO[C@H]1C[C@@H](n2c(=O)n(C)c3nnc4ccc(-c5ccc(COCCN6CC7CC7C6)nc5)cc4c32)C1 (stereo partly drawn) [Example 175, 8-(6-((2-(3-azabicyclo[3.1.0]hexan-3-yl)ethoxy)methyl)pyridin-3-yl)-1-(cis-3-methoxycyclobutyl)-3-methyl-1H-imidazo[4,5-c]cinnolin-2(3H)-one]
IC50 (ATM): 25 nM
IC50 [1, 6]: 33 nM
IC50 [2, 7]: 170 nM
